Measurements from patent publication US20210317140A1, “Heterocyclic Compounds and Methods of Use” (MEDIVATION TECHNOLOGIES, INC, priority 2013, published 2021).

Assays:
BTK = target: T1, BTK (Homo sapiens, UniProt Q06187); assay: BTK kinase assay (HotSpot, 33P ATP); type: biochemical; settings: for BTK @ 0.01 μM (% Inh): 0.01 μM compound; for BTK @ 0.01 μM (% Inh) / BTK @ 0.1 μM (% Inh): 10 μM ATP; for BTK @ 0.1 μM (% Inh): 0.1 μM compound
T1 construct: purchased Reaction Biology Corporation
In short: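 In 20 mM Hepes (pH 7.5) with 10 mM MgCl2, 1 mM EGTA, 0.1 mM Na3VO4, 2 mM DTT, 0.02% Brij35, 0.02 mg/mL BSA and 1% DMSO, kinase and substrate were exposed to ten compound doses for 15–20 min.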

PI3Kδ = target: T2, PI3Kδ (Homo sapiens, UniProt O00329); assay: PI3Kδ kinase assay (HTRF, PIP3 detection); type: biochemical; settings: for PI3Kδ @ 0.01 μM (% Inh): 0.01 μM compound; for PI3Kδ @ 0.01 μM (% Inh) / PI3Kδ @ 0.1 μM (% Inh): 10 μM ATP; for PI3Kδ @ 0.1 μM (% Inh): 0.1 μM compound; for IC50: 10 dose IC50, 10 μM ATP
T2 construct: purchased Reaction Biology Corporation
In short: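 10-dose HTRF assay; kinase preincubated with compound 10 min at RT, then reacted with 10 μM PIP2 and 10 μM ATP for 30 min at 30 °C in HEPES pH 7.0 buffer. PIP3 product displaces biotin-PIP3 from the Eu/APC complex; signal converted to PIP3 via standard curve, IC50 by nonlinear regression.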

CD69+B220+ cells = assay: B cell activation assay (IgD-stimulated splenocytes, CD69+B220+ cells by FACS); type: cell-based; settings: mouse splenocytes, IgD 3 μg/mL, 4 h; for CD69 @ 100 nM (% Inh): 100 nM compound
Experimental: 1 Female mouse approximately 2 months old was euthanized with CO2 and the spleen removed. The tissue was homogenized with a polished glass microscope slide. The cells were collected in 5 mL complete medium (RPMI+10% FBS+pen/strep), placed in a 15 mL falcon tube and centrifuged at 500×g for 5 min. The supernatant was discarded and the pellet was resuspended in 3 mL of ACK lysis buffer (NH4Cl 0.17M, KHCO3 10 mM, EDTA-Na2 0.1 mM, pH 7.2), incubated at 37° C. for 5 min. 2 mL complete medium was added and the mixture centrifuged at 500×g for 5 min. The supernatant was discarded and the pellet resuspended in 1 mL complete medium. The mixture was passed through a […] cell strainer and collect in 50 mL falcon tube. Enough medium was added to have a total of 10 mL. The cells were counted and seeded in 24 or 48-well plate in 1 mL complete medium at 10^6 cells/mL. The plate was placed in a 37° C. incubator for 15 min. The cells were treated for 30 min at 37° C. with 100 nM test compound dissolved in 100% DMSO. 3 μL IgD (Accurate chemical and scientific corp.) was added at a final concentration of 3 μg/mL and the mixture incubated at 37° C. for 4 h. The cells were collected in 1.5 mL eppendorf tubes, centrifuged at 500×g for 5 min and then resuspended in 100 μL of PBS+2% FBS. The following antibodies were added: α-B220 PE (pharmingen #553090), α-CD69 APC (pharmingen #60689), live/dead fixable aqua dead cell stain kit (life technologies #L34957) all at 1:300, and the mixture incubated for 15 min at 4° C. in the dark. To this was added 900 μL of PBS+2% FBS and the mixture centrifuged at 500×g for 5 min. The supernatant was removed and the pellet resuspended in 300 μL of PBS+2% FBS and mixed well. The mixture was transferred to a cytometer tube. The samples were run in the FACS Canto II cytometer and quantified by the number of CD69+B220+ cells as a percentage of the total number of B220+ alive cells.

T2 sequence (O00329 whole entry): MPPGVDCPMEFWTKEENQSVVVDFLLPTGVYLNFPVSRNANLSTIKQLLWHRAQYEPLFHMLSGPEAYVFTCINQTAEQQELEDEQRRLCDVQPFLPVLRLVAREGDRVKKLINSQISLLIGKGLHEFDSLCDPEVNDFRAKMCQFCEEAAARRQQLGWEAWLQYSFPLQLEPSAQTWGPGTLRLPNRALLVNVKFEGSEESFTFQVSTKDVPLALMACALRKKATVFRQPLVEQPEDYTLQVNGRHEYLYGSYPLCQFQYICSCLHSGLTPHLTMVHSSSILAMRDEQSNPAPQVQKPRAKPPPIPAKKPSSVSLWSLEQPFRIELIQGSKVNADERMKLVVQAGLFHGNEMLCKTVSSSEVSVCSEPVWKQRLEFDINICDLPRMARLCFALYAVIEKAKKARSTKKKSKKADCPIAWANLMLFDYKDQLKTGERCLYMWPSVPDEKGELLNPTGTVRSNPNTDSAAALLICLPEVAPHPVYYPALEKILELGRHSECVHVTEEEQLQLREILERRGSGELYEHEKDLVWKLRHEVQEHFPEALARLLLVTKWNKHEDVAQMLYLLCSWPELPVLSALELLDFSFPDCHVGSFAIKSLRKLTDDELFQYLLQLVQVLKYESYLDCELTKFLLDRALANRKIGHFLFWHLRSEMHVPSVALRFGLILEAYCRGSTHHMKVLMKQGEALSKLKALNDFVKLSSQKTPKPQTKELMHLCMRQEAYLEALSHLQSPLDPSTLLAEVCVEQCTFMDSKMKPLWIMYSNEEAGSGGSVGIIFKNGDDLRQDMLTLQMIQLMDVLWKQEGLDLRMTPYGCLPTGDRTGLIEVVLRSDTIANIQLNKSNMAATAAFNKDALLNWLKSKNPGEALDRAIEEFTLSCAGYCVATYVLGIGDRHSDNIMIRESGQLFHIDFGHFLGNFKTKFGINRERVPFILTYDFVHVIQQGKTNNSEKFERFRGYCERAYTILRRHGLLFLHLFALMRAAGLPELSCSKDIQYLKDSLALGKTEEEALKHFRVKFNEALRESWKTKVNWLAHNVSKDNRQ
T2 sequence (P27986 whole entry partner): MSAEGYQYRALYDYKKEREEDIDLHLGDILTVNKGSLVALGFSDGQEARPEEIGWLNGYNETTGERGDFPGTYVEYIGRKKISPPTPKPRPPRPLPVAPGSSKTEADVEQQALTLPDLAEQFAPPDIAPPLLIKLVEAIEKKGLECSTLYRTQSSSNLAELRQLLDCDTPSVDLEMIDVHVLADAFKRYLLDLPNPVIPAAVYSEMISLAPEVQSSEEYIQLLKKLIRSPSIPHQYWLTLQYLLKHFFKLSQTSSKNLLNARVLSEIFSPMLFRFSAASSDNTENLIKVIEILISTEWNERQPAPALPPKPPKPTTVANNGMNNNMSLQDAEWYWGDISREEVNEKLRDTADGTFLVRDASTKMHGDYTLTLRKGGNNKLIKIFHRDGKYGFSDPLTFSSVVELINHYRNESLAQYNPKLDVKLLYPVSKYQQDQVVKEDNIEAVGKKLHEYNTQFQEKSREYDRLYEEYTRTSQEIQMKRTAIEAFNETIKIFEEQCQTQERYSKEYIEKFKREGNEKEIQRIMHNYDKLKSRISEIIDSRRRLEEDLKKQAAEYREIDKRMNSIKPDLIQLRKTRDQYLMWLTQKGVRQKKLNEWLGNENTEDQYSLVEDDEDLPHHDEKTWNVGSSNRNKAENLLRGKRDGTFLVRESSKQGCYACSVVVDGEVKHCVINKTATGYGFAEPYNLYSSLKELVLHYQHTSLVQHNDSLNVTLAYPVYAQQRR
T1 sequence (Q06187 whole entry): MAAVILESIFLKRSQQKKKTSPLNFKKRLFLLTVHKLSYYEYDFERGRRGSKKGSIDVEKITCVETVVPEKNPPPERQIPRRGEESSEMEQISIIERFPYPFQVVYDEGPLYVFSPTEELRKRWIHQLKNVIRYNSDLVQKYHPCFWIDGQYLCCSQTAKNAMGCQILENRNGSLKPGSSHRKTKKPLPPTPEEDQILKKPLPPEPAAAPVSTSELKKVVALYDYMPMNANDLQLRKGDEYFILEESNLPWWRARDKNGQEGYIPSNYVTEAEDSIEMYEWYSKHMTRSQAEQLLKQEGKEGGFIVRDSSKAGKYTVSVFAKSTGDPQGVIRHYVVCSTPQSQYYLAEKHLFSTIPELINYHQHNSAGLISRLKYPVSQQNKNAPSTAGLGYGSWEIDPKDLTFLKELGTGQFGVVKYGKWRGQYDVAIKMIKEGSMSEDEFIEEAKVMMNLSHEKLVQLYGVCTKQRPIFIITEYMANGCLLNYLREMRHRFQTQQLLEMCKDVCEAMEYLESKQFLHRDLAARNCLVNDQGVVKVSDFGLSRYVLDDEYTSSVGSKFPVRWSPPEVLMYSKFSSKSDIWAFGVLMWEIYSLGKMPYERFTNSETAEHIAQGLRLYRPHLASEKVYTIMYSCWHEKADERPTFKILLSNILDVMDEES

SMILES	BTK @ 0.01 μM (% Inh) (BTK)	BTK @ 0.1 μM (% Inh) (BTK)	PI3Kδ @ 0.01 μM (% Inh) (PI3Kδ)	PI3Kδ @ 0.1 μM (% Inh) (PI3Kδ)	CD69 @ 100 nM (% Inh) (CD69+B220+ cells)	IC50 (BTK; 10 dose IC50, 10 μM ATP) [nM]	IC50 (PI3Kδ) [nM]	IC50 (CD69+B220+ cells; Splenocyte) [nM]
Nc1cc(-c2nn(C3CCc4ccccc4C3)c3ncnc(N)c23)cc(F)c1F (centres unmarked) [compound 122, 3-(3-amino-4,5-difluorophenyl)-1-(1,2,3,4-tetrahydronaphthalen-2-yl)-1H-pyrazolo[3,4-d]pyrimidin-4-amine]	12.72	53.15	−3.68	25.32	2.58 ± 4.93 (n = 3) % Inh			
Nc1ncnc2c1c(-c1cc(O)c(F)c(C(F)(F)F)c1)nn2C1CCc2ccccc2C1 (centres unmarked) [compound 123, 5-[4-amino-1-(1,2,3,4-tetrahydronaphthalen-2-yl)-1H-pyrazolo[3,4-d]pyrimidin-3-yl]-2-fluoro-3-(trifluoromethyl)phenol]	1.82	−0.78	59.11	88.87	29.22 ± 4.64 (n = 3) % Inh			
Nc1ncnc2c1c(-c1cc(F)c3c(c1)NCCO3)nn2C1CCc2ccccc2C1 (centres unmarked) [compound 124, 3-(8-fluoro-3,4-dihydro-2H-1,4-benzoxazin-6-yl)-1-(1,2,3,4-tetrahydronaphthalen-2-yl)-1H-pyrazolo[3,4-d]pyrimidin-4-amine]	4.47	34.18	8.34	52.39	14.44 ± 2.64 (n = 3) % Inh			
Nc1ncnn2c(C3Cc4ccccc4C3)cc(-c3cc(O)c(F)c(F)c3)c12 [compound 125, 5-[4-amino-7-(2,3-dihydro-1H-inden-2-yl)pyrrolo[2,1-f][1,2,4]triazin-5-yl]-2,3-difluorophenol]	39.05	80.31	22.51	62.27	2.68 ± 2.32 (n = 3) % Inh	14.2	32.8	
Nc1ncnc2c1c(-c1cc(O)c(F)c(F)c1)nn2C1CCc2ncccc21 (centres unmarked) [compound 126, 5-(4-amino-1-{5H,6H,7H-cyclopenta[b]pyridin-5-yl}-1H-pyrazolo[3,4-d]pyrimidin-3-yl)-2,3-difluorophenol]	8.16	8.18	4.71	2.3	12.35 ± 7.52 (n = 3) % Inh			
Nc1ncnc2c1c(-c1cc(O)c(F)c(F)c1)nn2C1Cc2ccc(F)cc2C1 (centres unmarked) [compound 128, 5-[4-amino-1-(5-fluoro-2,3-dihydro-1H-inden-2-yl)-1H-pyrazolo[3,4-d]pyrimidin-3-yl]-2,3-difluorophenol]	19.98	63.94	56.4	91.22	49.29 ± 5.74 (n = 3) % Inh			
Nc1ncnc2c1c(-c1cc(F)c3c(c1)NC(=O)CO3)nn2C1Cc2ccccc2C1 [compound 129, 6-[4-amino-1-(2,3-dihydro-1H-inden-2-yl)-1H-pyrazolo[3,4-d]pyrimidin-3-yl]-8-fluoro-3,4-dihydro-2H-1,4-benzoxazin-3-one]	6.57	18.99	8.3	19.42	12.5 ± 13.16 (n = 3) % Inh			
N#Cc1cc(-c2nn(C3CCc4ccccc4C3)c3ncnc(N)c23)cc(O)c1F (centres unmarked) [compound 130, 5-[4-amino-1-(1,2,3,4-tetrahydronaphthalen-2-yl)-1H-pyrazolo[3,4-d]pyrimidin-3-yl]-2-fluoro-3-hydroxybenzonitrile]	−1.03	−0.64	53.08	90.11	67.53 ± 15.54 (n = 3) % Inh		0.269	104.5 ± 0.7
NC(=O)c1cc(-c2nn(C3CCc4ccccc4C3)c3ncnc(N)c23)cc(O)c1F (centres unmarked) [compound 131, 5-[4-amino-1-(1,2,3,4-tetrahydronaphthalen-2-yl)-1H-pyrazolo[3,4-d]pyrimidin-3-yl]-2-fluoro-3-hydroxybenzamide]	−2.45	0.17	13.11	53.68	15.73 ± 14.11 (n = 3) % Inh			
NC(=O)c1cc(-c2nn(C3Cc4ccccc4C3)c3ncnc(N)c23)cc(O)c1F [compound 132, 5-[4-amino-1-(2,3-dihydro-1H-inden-2-yl)-1H-pyrazolo[3,4-d]pyrimidin-3-yl]-2-fluoro-3-hydroxybenzamide]	0.44	5.3	13.73	56.84	27.67 ± 13.46 (n = 3) % Inh			
NCc1cccc(-c2nn(C3Cc4ccccc4C3)c3ncnc(N)c23)c1 [compound 133, 3-[3-(aminomethyl)phenyl]-1-(2,3-dihydro-1H-inden-2-yl)-1H-pyrazolo[3,4-d]pyrimidin-4-amine]	−0.81	−0.94	−1.05	1.17	6.8 ± 14.52 (n = 3) % Inh			
